Experimental data taken from patent publication US20060127317A1, “Nasallly applicable pharmaceutical preparation and the production thereof” (priority 2002, published 2006).

Tested on: ciliated epithelium of the trachea of chicken embryos
Test: standard test for examining ciliary function (ciliary frequency of tracheal ciliated epithelium tissue pieces)
Format: cell-based
Details: orienting tests; compared with results of table 2
Description: In a standard test for examining ciliary function, a conventional preparation for nasal administration having a phosphate/citrate buffer and benzalkonium chloride as preservative was compared in each case with a preparation of the invention having malic acid as buffer and benzalkonium chloride as preservative.
Pieces of tissue from ciliated epithelium of the trachea of chicken embryos are employed in the tests on which the comparison is based, reference being made for details of the tests to S. G. Romejn et al., Int. J. of Pharmac. 135 (1996) 137-145 and van De Donk et al., Rhinology, 20 (1982) 81-87.
The self-cleaning of the nasal mucosa is then simulated by washing out the respective solutions and adding Ringer's solution for 45 min.
After exposure for 15 min, the ciliary frequency is reduced distinctly less by the exemplary solutions with malic acid buffer than by the reference solutions. The self-cleaning of the nasal mucosa is then simulated by washing out the test solutions and adding Ringer's solution for 45 min. A distinctly better recovery of the ciliary beating force, which extends to more than ¾ of the initial beating force (of 100%), is achieved thereby with the exemplary solutions with malic acid buffer. […]

| reduction in ciliary activity and regeneration of the cilia (result in words) | Molecule |
| --- | --- |
| similar | O=C(O)c1cc(=O)c2c(OCC(O)COc3cccc4oc(C(=O)O)cc(=O)c34)cccc2o1 [cromoglicic acid] |
| similar | calcitonin [calcitonin (from salmon)] |
